Data as given in patent US6034085A, “Salt form of nefazodone for use in extended release formulations” (Bristol-Myers Squibb Co., priority 1998, dated 2000).
“Also recorded” adds a separate entry of the source. Where a name gives a salt, the structure may show the parent alone. Read-outs that look alike come from different tables or passages of the source.

Key:
[1] = Stability under pharmaceutical processing and storage; assay type: physicochemical; settings: pharmaceutical processing/handling and storage; listed as mesylate salt
[2] = Dissolution of powdered nefazodone salts in 0.125M THAM buffer (FIG. 1); assay type: physicochemical; settings: powder, pH 7.5, 37° C.
Experimental: The curves are plotted as cumulative amounts of nefazodone versus time in minutes.
To assess solubility in non-acidic media, dissolution rates were determined for selected nefazodone salts in THAM buffer (0.125M, pH 7.5) made by dissolving tri(hydroxymethyl)aminomethane in water and adjusting the pH with conc. hydrochloride acid.
Intrinisic Dissolution Experiments in THAM
THAM buffer was prepared by dissolving tri(hydroxymethyl)aminomethane in water and adjusting the pH with concentrated hydrochloric acid. Dissolution of salts of nefazodone in powder form was studied in this medium.
The experiments were conducted in 0.125 M THAM (pH 7.7) at 37° C. using the USP II dissolution apparatus. Nefazodone […] in powder form (about 75-80 mg) were added to 900 mL dissolution medium stirred at 50 rpm and samples were withdrawn at time points up to 2 hours. The USP official method recommends paddles to be 1 inch from the bottom. In this experiment, paddles were 3/4 inch from the bottom. The paddle depth was altered to facilitate suspension of the powder during experiments. Samples were analyzed using HPLC assay.

[3] = Intrinsic dissolution of various nefazodone salts in water at 37° C.; assay type: physicochemical; settings: for Intrinsic Dissolution Rate: n = 2; for Final pH: pH of the aqueous medium after dissolution had occurred
Experimental: Table 1 sets out intrinsic dissolution rates for various salts of nefazodone in water at 37° C. The final pH value is the pH of the aqueous medium after dissolution had occurred. […] Note, however, that the tosylate salt's dissolution rate is also slow even though the media is acidic in nature.
The intrinsic dissolution experiments were performed with 75 mL water as the dissolution medium. The details of these dissolution experiments are summarized below:
Container: Double-walled beaker, 100 mL capacity, round bottom.
Volume of sample withdrawn per interval: 1 mL.
Temperature of the solution in the beaker was maintained by means of a circulating waterbath. The medium was stirred with a USP II paddle using 100 rpm stirring rate (paddle depth=1 inch below the surface of the medium). Samples were withdrawn through a 0.45 μm syringe filter and were analyzed without any further dilution or treatment by HPLC (Method 1).

[4] = Aqueous solubility of nefazodone as a function of pH; assay type: physicochemical; settings: gastrointestinal tract / pH range
[5] = Drug release from tablets in simulated gastric fluid pH 1.2 (FIG. 2); assay type: physicochemical; settings: pH 1.2, 37° C.
Experimental: (§1) The curves are plotted as percent nefazodone released over time in hours.
(§2) Remaining dissolution experiments were made with the nefazodone salts formulated into tablets as described more fully infra. Essentially, the tablets were comprised of a nefazodone salt, hydroxypropylcellulose, lactose and magnesium stearate.
(§3) Release Profiles from the Tablet Formulation
(§4) The preparation and characterization of tablets of salts of nefazodone was performed as described below:
(§5) The nefazodone salt, hydroxypropyl cellulose EF and lactose were mixed for 10-15 minutes. Magnesium stearate was added to this mixture, mixing it for five more minutes. Tablets were compressed using a Manesty machine (Model-Manesty B3B). The tablet hardness was approximately 7 SCU.
(§6) Dissolution studies were performed with a USP II apparatus in simulated gastric fluid (USP, pH 1.2), simulated intestinal fluid (USP, pH 7.5) and 0.5 M THAM (pH 7.7). The details of conditions for the dissolution experiments are as follows:
(§7) […]: 900 mL.
(§8) Sample volume withdrawn at each interval: 0.7 mL.
(§9) Samples were filtered during withdrawal and chromatographed without further dilution or treatment. Samples were analyzed by Waters HPLC system. The HPLC conditions are listed in Method 2 below.

[6] = Drug release from tablets in simulated intestinal fluid pH 7.5 (FIG. 3); assay type: physicochemical; settings: pH 7.5, 37° C.
Experimental: as §1, §2, §3, §4, §5, §6, §7, §8, §9

[7] = Drug release from tablets in 0.5M THAM buffer (FIG. 4); assay type: physicochemical; settings: 37° C.
Experimental: as §1, §2, §3, §4, §5
The details of conditions for the dissolution experiments are as follows:
as §7, §8, §9

[8] = cited from earlier work
[9] = extended release formulations, cited from earlier work
[10] = cited from earlier work; remark: listed apart in the source

SMILES | Intrinsic Dissolution Rate [3] [mg/min/cm 2] | Final pH [3] | solubility / dissolution rate in water [3] | also measured
CCc1nn(CCCN2CCN(c3cccc(Cl)c3)CC2)c(=O)n1CCOc1ccccc1 [Mesylate] | 2.7 | 4.0 |  | stability [1]: stable solid; also recorded: stable under conditions of pharmaceutical processing and storage; concentration of drug dissolved compared to the hydrochloride salt [2]: in the higher grouping, the mesylate is not the best of those shown; solubility throughout the gastrointestinal tract [4]: exhibit solubility throughout the gastrointestinal tract; drug release from tablets [5]: good but not excessive dissolution; drug release from tablets ([5]; listed as mesylate salt): more modest release; drug release from tablets [6]: best of class dissolution; drug release from tablets ([6]; listed as mesylate salt): performs better than the other salts; drug release from tablets [7]: outperforms the others
CCc1nn(CCCN2CCN(c3cccc(Cl)c3)CC2)c(=O)n1CCOc1ccccc1 [Hydrochloride, reference compound] | 0.93 | 4.4 |  | drug release from tablets ([5]; listed as hydrochloride salt): good solubility; solubility in the intestinal tract ([8]; intestinal tract, pH ranges from about 5-7): low solubility; bioavailability [9]: low observed bioavailability
CCc1nn(CCCN2CCN(c3cccc(Cl)c3)CC2)c(=O)n1CCOc1ccccc1 [Nefazodone base] | 0.002 | 7.2 | Low solubilities | pka ([10]; first of two pka values): about 6.4; pka ([10]; second of two pka values): ~9.5; aqueous solubility ([8]; pH values greater than 6): low aqueous solubility; nefazodone release in the human intestinal tract ([9]; pH approaches neutrality): inhibited
CCc1nn(CCCN2CCN(c3cccc(Cl)c3)CC2)c(=O)n1CCOc1ccccc1 [L-Tartrate] | 0.97 | 3.8 |  | 
CCc1nn(CCCN2CCN(c3cccc(Cl)c3)CC2)c(=O)n1CCOc1ccccc1 [D-Malate] | 1.15 | 4.2 |  | 
CCc1nn(CCCN2CCN(c3cccc(Cl)c3)CC2)c(=O)n1CCOc1ccccc1 [Tosylate] | 0.1 | 4.4 | slow | 
CCc1nn(CCCN2CCN(c3cccc(Cl)c3)CC2)c(=O)n1CCOc1ccccc1 [Succinate] | 0.16 | 5.0 | Low solubilities | 
CCc1nn(CCCN2CCN(c3cccc(Cl)c3)CC2)c(=O)n1CCOc1ccccc1 [DL-Tartrate] | 1.2 | 3.7 |  | 
CCc1nn(CCCN2CCN(c3cccc(Cl)c3)CC2)c(=O)n1CCOc1ccccc1 [L-Malate] | 1.36 | 4.2 |  | 
CCc1nn(CCCN2CCN(c3cccc(Cl)c3)CC2)c(=O)n1CCOc1ccccc1 [Acetate] | 0.03 | 5.4 | Low solubilities | 
CCc1nn(CCCN2CCN(c3cccc(Cl)c3)CC2)c(=O)n1CCOc1ccccc1 [DL-Malate] | 0.98 | 4.3 |  | 
CCc1nn(CCCN2CCN(c3cccc(Cl)c3)CC2)c(=O)n1CCOc1ccccc1 [Maleate] | 0.30 | 4.8 |  | 
CCc1nn(CCCN2CCN(c3cccc(Cl)c3)CC2)c(=O)n1CCOc1ccccc1 [D-Tartrate] | 1.13 | 3.7 |  | 
